Measured values taken from patent US20260184691A1, “INHIBITORS AND DEGRADERS OF PIP4K PROTEIN” (Larkspur Biosciences, Inc., priority 2022, published 2026).

Each compound was assayed against T1, endogenous PIP4K2C C-terminally tagged with HiBiT peptide in MOLT-4 cells (Homo sapiens, UniProt Q8TBX8) (assay: HiBiT PIP4K2C degradation assay in MOLT-4 cells). Conditions: 24 hours, 10-point dose response, top concentration 10 micromolar, read-out: HiBIT-degradation MOLT4 PIP4k2C 24 hours DC50.
T1 construct: to C-terminally tag endogenous PIP4K2C with HiBiT peptide; host or cells: MOLT-4 (CRISPR-Cas9 knock-in clone)
T1 sequence (Q8TBX8 1-421): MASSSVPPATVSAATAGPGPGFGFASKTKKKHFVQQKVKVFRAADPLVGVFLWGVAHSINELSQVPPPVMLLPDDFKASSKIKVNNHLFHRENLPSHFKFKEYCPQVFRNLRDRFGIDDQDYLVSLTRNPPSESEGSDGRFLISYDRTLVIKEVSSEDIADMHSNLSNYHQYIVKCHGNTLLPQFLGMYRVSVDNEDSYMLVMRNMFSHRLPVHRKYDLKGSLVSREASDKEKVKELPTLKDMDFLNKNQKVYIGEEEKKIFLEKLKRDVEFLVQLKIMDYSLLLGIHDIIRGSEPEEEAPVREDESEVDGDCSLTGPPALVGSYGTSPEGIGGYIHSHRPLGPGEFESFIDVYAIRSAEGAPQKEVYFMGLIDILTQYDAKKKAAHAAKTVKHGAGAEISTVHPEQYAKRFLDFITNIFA
Assay type: cell-based
In short: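 Cells bearing C-terminal HiBiT knock-in were exposed to a 10-point, 3-fold dilution series (top 10 micromolar, duplicate) for 24 h at 37C, 5% CO2. Remaining tagged protein read by lytic HiBiT luminescence; DC50 from Hill-equation fit.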

Row | DC50 | SMILES
1 | < 500 nM | O=C1CCC(Nc2ccc(N3CCC(O)(CC(=O)N4CCC5(CC4)CCN(c4cncc(Nc6ncc(Cl)c(-c7cccc(-c8ccccc8)c7)n6)c4)C5=O)CC3)cc2)C(=O)N1 (stereo not shown) [Compound 180, 3-[4-[4-[2-[2-[5-[[5-chloro-4-(3-phenylphenyl)pyrimidin-2-yl]amino]-3-pyridyl]-1-oxo-2,8-diazaspiro[4.5]decan-8-yl]-2-oxo-ethyl]-4-hydroxy-1-piperidyl]anilino]piperidine-2,6-dione]
2 | < 500 nM | CC(=O)N1CCCC(n2cc(-c3nc(Nc4cncc(N5CCC6(CCN(C(=O)CN7CCC(c8ccc(NC9CCC(=O)NC9=O)cc8)CC7)CC6)C5=O)c4)ncc3Cl)cn2)C1 (stereo not shown) [Compound 197, 3-((4-(1-(2-(2-(5-((4-(1-(1-acetylpiperidin-3-yl)-1H-pyrazol-4-yl)-5-chloropyrimidin-2-yl)amino)pyridin-3-yl)-1-oxo-2,8-diazaspiro[4.5]decan-8-yl)-2-oxoethyl)piperidin-4-yl)phenyl)amino)piperidine-2,6-dione]
3 | < 500 nM | O=C1CCC(N2Cc3cc(OC4CCN(C(=O)CN5CCC(C(=O)Nc6cncc(Nc7ncc(Cl)c(-c8cccc(C9CC9)c8)n7)c6)CC5)CC4)ccc3C2=O)C(=O)N1 (stereo not shown) [Compound 201, N-(5-((5-chloro-4-(3-cyclopropylphenyl)pyrimidin-2-yl)amino)pyridin-3-yl)-1-(2-(4-((2-(2,6-dioxopiperidin-3-yl)-1-oxoisoindolin-5-yl)oxy)piperidin-1-yl)-2-oxoethyl)piperidine-4-carboxamide]
4 | < 500 nM | O=C1CCC(N2C(=O)c3ccc(OCCCCC(=O)N4CCC5(CC4)CCN(c4cncc(Nc6ncc(Cl)c(-c7cccc(-c8ccccc8)c7)n6)c4)C5=O)cc3C2=O)C(=O)N1 (stereo not shown) [Compound 76, 5-((5-(2-(5-((4-([1,1′-biphenyl]-3-yl)-5-chloropyrimidin-2-yl)amino)pyridin-3-yl)-1-oxo-2,8-diazaspiro[4.5]decan-8-yl)-5-oxopentyl)oxy)-2-(2,6-dioxopiperidin-3-yl)isoindoline-1,3-dione]
5 | < 500 nM | O=C1CCC(Nc2ccc(C3CCN(CC(=O)N4CCC5(CC4)CCN(c4cncc(Nc6ncc(Cl)c(-c7cccc(N8CCC8)c7)n6)c4)C5=O)CC3)cc2)C(=O)N1 (stereo not shown) [Compound 188, 3-((4-(1-(2-(2-(5-((4-(3-(azetidin-1-yl)phenyl)-5-chloropyrimidin-2-yl)amino)pyridin-3-yl)-1-oxo-2,8-diazaspiro[4.5]decan-8-yl)-2-oxoethyl)piperidin-4-yl)phenyl)amino)piperidine-2,6-dione]
6 | < 500 nM | O=C1CCC(N2Cc3cc(C4CCN(C(=O)CN5CCC6(CC5)CCN(c5cncc(Nc7ncc(Cl)c(-c8cccc(C9CC9)c8)n7)c5)C6=O)CC4)ccc3C2=O)C(=O)N1 (stereo not shown) [Compound 198, 3-(5-(1-(2-(2-(5-((5-chloro-4-(3-cyclopropylphenyl)pyrimidin-2-yl)amino)pyridin-3-yl)-1-oxo-2,8-diazaspiro[4.5]decan-8-yl)acetyl)piperidin-4-yl)-1-oxoisoindolin-2-yl)piperidine-2,6-dione]
7 | < 500 nM | O=C1CCC(Nc2ccc(N3CCC(CC(=O)N4CCC5(CC4)CCN(c4cncc(Nc6ncc(Cl)c(-c7cccc(C8CCCC8)c7)n6)c4)C5=O)CC3)cc2)C(=O)N1 (stereo not shown) [Compound 191, 3-((4-(4-(2-(2-(5-((5-chloro-4-(3-cyclopentylphenyl)pyrimidin-2-yl)amino)pyridin-3-yl)-1-oxo-2,8-diazaspiro[4.5]decan-8-yl)-2-oxoethyl)piperidin-1-yl)phenyl)amino)piperidine-2,6-dione]
8 | < 500 nM | O=C1CCC(N2C(=O)c3cccc(OCCCN4CCN(CCCCCC(=O)Nc5cncc(Nc6ncc(Cl)c(-c7cccc(-c8ccccc8)c7)n6)c5)CC4)c3C2=O)C(=O)N1 (stereo not shown) [Compound 68, N-(5-((4-([1,1′-biphenyl]-3-yl)-5-chloropyrimidin-2-yl)amino)pyridin-3-yl)-6-(4-(3-((2-(2,6-dioxopiperidin-3-yl)-1,3-dioxoisoindolin-4-yl)oxy)propyl)piperazin-1-yl)hexanamide]
9 | < 500 nM | O=C1CCC(Nc2ccc(N3CCC(N4CCN(CCC(=O)Nc5cncc(Nc6ncc(Cl)c(-c7cccc(-c8ccccc8)c7)n6)c5)CC4)CC3)cc2)C(=O)N1 (stereo not shown) [Compound 183, N-(5-((4-([1,1′-biphenyl]-3-yl)-5-chloropyrimidin-2-yl)amino)pyridin-3-yl)-3-(4-(1-(4-((2,6-dioxopiperidin-3-yl)amino)phenyl)piperidin-4-yl)piperazin-1-yl)propanamide]
10 | < 500 nM | O=C1CCC(Nc2ccc(C3CCN(CC(=O)N4CCC5(CC4)CCN(c4cncc(Nc6ncc(Cl)c(-c7cccc(C8CCCCC8)c7)n6)c4)C5=O)CC3)cc2)C(=O)N1 (stereo not shown) [Compound 190, 3-((4-(1-(2-(2-(5-((5-chloro-4-(3-cyclohexylphenyl)pyrimidin-2-yl)amino)pyridin-3-yl)-1-oxo-2,8-diazaspiro[4.5]decan-8-yl)-2-oxoethyl)piperidin-4-yl)phenyl)amino)piperidine-2,6-dione]
11 | 500 to 1000 nM | O=C(COc1ccc(NC2CCC(=O)NC2=O)cc1)NCCCCCCCCCC(=O)Nc1cncc(Nc2ncc(Cl)c(-c3cccc(-c4ccccc4)c3)n2)c1 (stereo not shown) [Compound 55, N-(5-((4-([1,1′-biphenyl]-3-yl)-5-chloropyrimidin-2-yl)amino)pyridin-3-yl)-10-(2-(4-((2,6-dioxopiperidin-3-yl)amino)phenoxy)acetamido)decanamide]
12 | 1000 to 5000 nM | O=C(CCCCCOc1cccc2c1C(=O)N(C1CCC(=O)NC1=O)C2=O)NCCCCCC(=O)Nc1cncc(Nc2ncc(Cl)c(-c3cccc(-c4ccccc4)c3)n2)c1 (stereo not shown) [Compound 83, N-(5-((4-([1,1′-biphenyl]-3-yl)-5-chloropyrimidin-2-yl)amino)pyridin-3-yl)-6-(6-((2-(2,6-dioxopiperidin-3-yl)-1,3-dioxoisoindolin-4-yl)oxy)hexanamido)hexanamide]
13 | < 500 nM | O=C1CCC(N2Cc3cc(NCCCCC(=O)N4CCC5(CC4)CCN(c4cncc(Nc6ncc(Cl)c(-c7cccc(-c8ccccn8)c7)n6)c4)C5=O)ccc3C2=O)C(=O)N1 (stereo not shown) [Compound 195, 3-(5-((5-(2-(5-((5-chloro-4-(3-(pyridin-2-yl)phenyl)pyrimidin-2-yl)amino)pyridin-3-yl)-1-oxo-2,8-diazaspiro[4.5]decan-8-yl)-5-oxopentyl)amino)-1-oxoisoindolin-2-yl)piperidine-2,6-dione]
14 | < 500 nM | O=C1CCC(Nc2ccc(C3CCN(CC(=O)N4CCC5(CC4)CCN(c4cncc(Nc6ncc(Cl)c(-c7cccc(N8CCCCC8)c7)n6)c4)C5=O)CC3)cc2)C(=O)N1 (stereo not shown) [Compound 185, 3-[4-[1-[2-[2-[5-[[5-chloro-4-[3-(1-piperidyl)phenyl]pyrimidin-2-yl]amino]-3-pyridyl]-1-oxo-2,8-diazaspiro[4.5]decan-8-yl]-2-oxo-ethyl]-4-piperidyl]anilino]piperidine-2,6-dione]
15 | < 500 nM | O=C1CCC(Nc2ccc(N3CCC(CC(=O)N4CCC5(CC4)CCN(c4cncc(Nc6ncc(Cl)c(N7CCC[C@@H](C(F)(F)F)C7)n6)c4)C5=O)CC3)cc2)C(=O)N1 (stereo partly drawn) [Compound 177, 3-((4-(4-(2-(2-(5-((5-chloro-4-((R)-3-(trifluoromethyl)piperidin-1-yl)pyrimidin-2-yl)amino)pyridin-3-yl)-1-oxo-2,8-diazaspiro[4.5]decan-8-yl)-2-oxoethyl)piperidin-1-yl)phenyl)amino)piperidine-2,6-dione]
16 | < 500 nM | O=C1CCC(N2Cc3c(OCCCCCCCC(=O)N4CCC5(CC4)CCN(c4cncc(Nc6ncc(Cl)c(-c7cccc(-c8ccccc8)c7)n6)c4)C5=O)cccc3C2=O)C(=O)N1 (stereo not shown) [Compound 70, 3-(4-((8-(2-(5-((4-([1,1′-biphenyl]-3-yl)-5-chloropyrimidin-2-yl)amino)pyridin-3-yl)-1-oxo-2,8-diazaspiro[4.5]decan-8-yl)-8-oxooctyl)oxy)-1-oxoisoindolin-2-yl)piperidine-2,6-dione]
17 | < 500 nM | O=C1CCC(Nc2ccc(N3CCC(CC(=O)N4CCC5(CC4)CCN(c4cncc(Nc6ncc(Cl)c(-c7cccc(N8CCCC8)c7)n6)c4)C5=O)CC3)cc2)C(=O)N1 (stereo not shown) [Compound 184, 3-((4-(4-(2-(2-(5-((5-chloro-4-(3-(pyrrolidin-1-yl)phenyl)pyrimidin-2-yl)amino)pyridin-3-yl)-1-oxo-2,8-diazaspiro[4.5]decan-8-yl)-2-oxoethyl)piperidin-1-yl)phenyl)amino)piperidine-2,6-dione]
18 | < 500 nM | O=C1CCC(Nc2ccc(N3CCC(CC(=O)N4CCC5(CC4)CCN(c4cncc(Nc6ncc(Cl)c(N7CCC[C@H](C(F)(F)F)C7)n6)c4)C5=O)CC3)cc2)C(=O)N1 (stereo partly drawn) [Compound 178, 3-((4-(4-(2-(2-(5-((5-chloro-4-((S)-3-(trifluoromethyl)piperidin-1-yl)pyrimidin-2-yl)amino)pyridin-3-yl)-1-oxo-2,8-diazaspiro[4.5]decan-8-yl)-2-oxoethyl)piperidin-1-yl)phenyl)amino)piperidine-2,6-dione]
19 | < 500 nM | O=C1CCC(Nc2ccc(C3CCN(CCN4CCC5(CC4)CCN(c4cncc(Nc6ncc(Cl)c(-c7cccc(C8CC8)c7)n6)c4)C5=O)CC3)cc2)C(=O)N1 (stereo not shown) [Compound 211, 3-((4-(1-(2-(2-(5-((5-chloro-4-(3-cyclopropylphenyl)pyrimidin-2-yl)amino)pyridin-3-yl)-1-oxo-2,8-diazaspiro[4.5]decan-8-yl)ethyl)piperidin-4-yl)phenyl)amino)piperidine-2,6-dione]
